According to patent US20100003191A1, “AURONE DERIVATIVE-CONTAINING COMPOSITION FOR DIAGNOSIS” (NAGASAKI UNIVERSITY, priority 2006, published 2010):

Key:
[1] = In vivo radioactivity distribution experiment of 125I-labeled aurone derivatives in normal mice (Example 2, Table 15); conditions: tail vein
Procedure: Animals were decapitated at 2, 10, 30 or 60 min after the injection, and the blood was collected. Then, major organs were removed, and weights and radioactivities thereof were measured.
In vivo radioactivity distribution experiments of ^125I-labeled aurone derivatives were performed using 5-week-old normal mice.

[2] = In vivo radioactivity biodistribution experiment in normal mice (Example 1, Table 13); design: species or system ddY mice
Procedure: ^125I-labeled compounds were diluted with 10% ethanol-containing physiological saline. […] After their blood was collected, organs were removed, and the weights and radioactivities thereof were measured.
When any of the aurone derivatives was used, sufficient radioactivity to perform imaging of intracerebral amyloid migrated to the brain from the early stage of injection (1.7-4.6% ID/g). […] It was also shown that, in any of the aurone derivatives, in vivo radioactivity behavior is discharged mainly from the liver to the bile duct and the intestinal tract.

O=C1/C(=C/c2ccc(OCCO)cc2)Oc2ccc([125I])cc21 [[125I]26]
Radioactivity distribution, Blood, Mean ([1]; 2 min after injection): 4.97 % ID/g
Radioactivity distribution, Blood, Mean ([1]; 10 min after injection): 3.88 % ID/g
Radioactivity distribution, Blood, Mean ([1]; 30 min after injection): 2.38 % ID/g
Radioactivity distribution, Blood, Mean ([1]; 60 min after injection): 1.24 % ID/g
Radioactivity distribution, Brain, Mean ([1]; 2 min after injection): 4.51 % ID/g
Radioactivity distribution, Brain, Mean ([1]; 10 min after injection): 1.49 % ID/g
Radioactivity distribution, Brain, Mean ([1]; 30 min after injection): 0.24 % ID/g
Radioactivity distribution, Brain, Mean ([1]; 60 min after injection): 0.09 % ID/g

O=C1/C(=C/c2ccc(OCCOCCO)cc2)Oc2ccc([125I])cc21 [[125I]27]
Radioactivity distribution, Blood, Mean ([1]; 2 min after injection): 3.61 % ID/g
Radioactivity distribution, Blood, Mean ([1]; 10 min after injection): 5.18 % ID/g
Radioactivity distribution, Blood, Mean ([1]; 30 min after injection): 1.11 % ID/g
Radioactivity distribution, Blood, Mean ([1]; 60 min after injection): 0.68 % ID/g
Radioactivity distribution, Brain, Mean ([1]; 2 min after injection): 3.69 % ID/g
Radioactivity distribution, Brain, Mean ([1]; 10 min after injection): 1.53 % ID/g
Radioactivity distribution, Brain, Mean ([1]; 30 min after injection): 0.38 % ID/g
Radioactivity distribution, Brain, Mean ([1]; 60 min after injection): 0.16 % ID/g

O=C1/C(=C/c2ccc(OCCOCCOCCO)cc2)Oc2ccc([125I])cc21 [[125I]28]
Radioactivity distribution, Blood, Mean ([1]; 2 min after injection): 4.75 % ID/g
Radioactivity distribution, Blood, Mean ([1]; 10 min after injection): 2.70 % ID/g
Radioactivity distribution, Blood, Mean ([1]; 30 min after injection): 1.13 % ID/g
Radioactivity distribution, Blood, Mean ([1]; 60 min after injection): 0.55 % ID/g
Radioactivity distribution, Brain, Mean ([1]; 2 min after injection): 2.81 % ID/g
Radioactivity distribution, Brain, Mean ([1]; 10 min after injection): 0.84 % ID/g
Radioactivity distribution, Brain, Mean ([1]; 30 min after injection): 0.18 % ID/g
Radioactivity distribution, Brain, Mean ([1]; 60 min after injection): 0.08 % ID/g

COc1ccc(/C=C2\Oc3ccc([125I])cc3C2=O)cc1 [[^125I]17]
Biodistribution of radioactivity, Blood ([2]; 2 min after injection): 3.16 (0.82) % injected dose per gram
Biodistribution of radioactivity, Blood ([2]; 10 min after injection): 1.51 (0.23) % injected dose per gram
Biodistribution of radioactivity, Blood ([2]; 30 min after injection): 0.95 (0.19) % injected dose per gram
Biodistribution of radioactivity, Blood ([2]; 60 min after injection): 0.70 (0.60) % injected dose per gram
Biodistribution of radioactivity, Brain ([2]; 2 min after injection): 1.69 (0.43) % injected dose per gram
Biodistribution of radioactivity, Brain ([2]; 10 min after injection): 0.54 (0.12) % injected dose per gram
Biodistribution of radioactivity, Brain ([2]; 30 min after injection): 0.11 (0.05) % injected dose per gram
Biodistribution of radioactivity, Brain ([2]; 60 min after injection): 0.03 (0.02) % injected dose per gram
Biodistribution of radioactivity, Heart ([2]; 2 min after injection): 3.84 (1.04) % injected dose per gram
Biodistribution of radioactivity, Heart ([2]; 10 min after injection): 1.06 (0.10) % injected dose per gram
Biodistribution of radioactivity, Heart ([2]; 30 min after injection): 0.37 (0.09) % injected dose per gram
Biodistribution of radioactivity, Heart ([2]; 60 min after injection): 0.25 (0.12) % injected dose per gram
Biodistribution of radioactivity, Intestine ([2]; 2 min after injection): 1.59 (0.51) % injected dose per gram
Biodistribution of radioactivity, Intestine ([2]; 10 min after injection): 4.70 (1.46) % injected dose per gram
Biodistribution of radioactivity, Intestine ([2]; 30 min after injection): 11.67 (3.56) % injected dose per gram
Biodistribution of radioactivity, Intestine ([2]; 60 min after injection): 9.02 (3.14) % injected dose per gram
Biodistribution of radioactivity, Kidney ([2]; 2 min after injection): 7.26 (2.18) % injected dose per gram
Biodistribution of radioactivity, Kidney ([2]; 10 min after injection): 7.00 (1.49) % injected dose per gram
Biodistribution of radioactivity, Kidney ([2]; 30 min after injection): 4.93 (1.52) % injected dose per gram
Biodistribution of radioactivity, Kidney ([2]; 60 min after injection): 2.43 (1.17) % injected dose per gram
Biodistribution of radioactivity, Liver ([2]; 2 min after injection): 6.87 (2.18) % injected dose per gram
Biodistribution of radioactivity, Liver ([2]; 10 min after injection): 5.16 (0.73) % injected dose per gram
Biodistribution of radioactivity, Liver ([2]; 30 min after injection): 2.76 (0.40) % injected dose per gram
Biodistribution of radioactivity, Liver ([2]; 60 min after injection): 1.86 (0.83) % injected dose per gram
Biodistribution of radioactivity, Lung ([2]; 2 min after injection): 6.71 (1.39) % injected dose per gram
Biodistribution of radioactivity, Lung ([2]; 10 min after injection): 1.76 (0.29) % injected dose per gram
Biodistribution of radioactivity, Lung ([2]; 30 min after injection): 0.97 (0.20) % injected dose per gram
Biodistribution of radioactivity, Lung ([2]; 60 min after injection): 0.75 (0.33) % injected dose per gram
Biodistribution of radioactivity, Pancreas ([2]; 2 min after injection): 2.83 (0.75) % injected dose per gram
Biodistribution of radioactivity, Pancreas ([2]; 10 min after injection): 0.77 (0.17) % injected dose per gram
Biodistribution of radioactivity, Pancreas ([2]; 30 min after injection): 0.29 (0.14) % injected dose per gram
Biodistribution of radioactivity, Pancreas ([2]; 60 min after injection): 0.16 (0.05) % injected dose per gram
Biodistribution of radioactivity, Spleen ([2]; 2 min after injection): 1.45 (0.56) % injected dose per gram
Biodistribution of radioactivity, Spleen ([2]; 10 min after injection): 0.74 (0.10) % injected dose per gram
Biodistribution of radioactivity, Spleen ([2]; 30 min after injection): 0.48 (0.10) % injected dose per gram
Biodistribution of radioactivity, Spleen ([2]; 60 min after injection): 0.43 (0.14) % injected dose per gram
Biodistribution of radioactivity, Stomach ([2]; 2 min after injection): 0.68 (0.33) % injected dose per organ
Biodistribution of radioactivity, Stomach ([2]; 10 min after injection): 1.06 (0.66) % injected dose per organ
Biodistribution of radioactivity, Stomach ([2]; 30 min after injection): 0.48 (0.09) % injected dose per organ
Biodistribution of radioactivity, Stomach ([2]; 60 min after injection): 0.96 (0.46) % injected dose per organ

O=C1/C(=C/c2ccc(O)cc2)Oc2ccc([125I])cc21 [[^125I]20]
Biodistribution of radioactivity, Blood ([2]; 2 min after injection): 3.14 (0.73) % injected dose per gram
Biodistribution of radioactivity, Blood ([2]; 10 min after injection): 2.77 (0.28) % injected dose per gram
Biodistribution of radioactivity, Blood ([2]; 30 min after injection): 1.75 (0.38) % injected dose per gram
Biodistribution of radioactivity, Blood ([2]; 60 min after injection): 0.87 (0.28) % injected dose per gram
Biodistribution of radioactivity, Brain ([2]; 2 min after injection): 3.07 (0.39) % injected dose per gram
Biodistribution of radioactivity, Brain ([2]; 10 min after injection): 1.48 (0.19) % injected dose per gram
Biodistribution of radioactivity, Brain ([2]; 30 min after injection): 0.37 (0.07) % injected dose per gram
Biodistribution of radioactivity, Brain ([2]; 60 min after injection): 0.14 (0.12) % injected dose per gram
Biodistribution of radioactivity, Heart ([2]; 2 min after injection): 6.23 (0.63) % injected dose per gram
Biodistribution of radioactivity, Heart ([2]; 10 min after injection): 2.57 (0.41) % injected dose per gram
Biodistribution of radioactivity, Heart ([2]; 30 min after injection): 0.98 (0.14) % injected dose per gram
Biodistribution of radioactivity, Heart ([2]; 60 min after injection): 0.42 (0.09) % injected dose per gram
Biodistribution of radioactivity, Intestine ([2]; 2 min after injection): 2.11 (0.75) % injected dose per gram
Biodistribution of radioactivity, Intestine ([2]; 10 min after injection): 6.12 (0.83) % injected dose per gram
Biodistribution of radioactivity, Intestine ([2]; 30 min after injection): 12.67 (2.13) % injected dose per gram
Biodistribution of radioactivity, Intestine ([2]; 60 min after injection): 14.87 (5.42) % injected dose per gram
Biodistribution of radioactivity, Kidney ([2]; 2 min after injection): 11.08 (2.96) % injected dose per gram
Biodistribution of radioactivity, Kidney ([2]; 10 min after injection): 11.22 (2.26) % injected dose per gram
Biodistribution of radioactivity, Kidney ([2]; 30 min after injection): 5.82 (1.11) % injected dose per gram
Biodistribution of radioactivity, Kidney ([2]; 60 min after injection): 2.43 (1.04) % injected dose per gram
Biodistribution of radioactivity, Liver ([2]; 2 min after injection): 6.05 (1.49) % injected dose per gram
Biodistribution of radioactivity, Liver ([2]; 10 min after injection): 6.63 (1.08) % injected dose per gram
Biodistribution of radioactivity, Liver ([2]; 30 min after injection): 4.23 (0.63) % injected dose per gram
Biodistribution of radioactivity, Liver ([2]; 60 min after injection): 4.45 (3.14) % injected dose per gram
Biodistribution of radioactivity, Lung ([2]; 2 min after injection): 6.69 (0.86) % injected dose per gram
Biodistribution of radioactivity, Lung ([2]; 10 min after injection): 3.14 (0.23) % injected dose per gram
Biodistribution of radioactivity, Lung ([2]; 30 min after injection): 1.62 (0.22) % injected dose per gram
Biodistribution of radioactivity, Lung ([2]; 60 min after injection): 0.80 (0.19) % injected dose per gram
Biodistribution of radioactivity, Pancreas ([2]; 2 min after injection): 5.28 (0.99) % injected dose per gram
Biodistribution of radioactivity, Pancreas ([2]; 10 min after injection): 2.65 (0.64) % injected dose per gram
Biodistribution of radioactivity, Pancreas ([2]; 30 min after injection): 0.92 (0.19) % injected dose per gram
Biodistribution of radioactivity, Pancreas ([2]; 60 min after injection): 0.36 (0.09) % injected dose per gram
Biodistribution of radioactivity, Spleen ([2]; 2 min after injection): 2.18 (0.48) % injected dose per gram
Biodistribution of radioactivity, Spleen ([2]; 10 min after injection): 1.36 (0.15) % injected dose per gram
Biodistribution of radioactivity, Spleen ([2]; 30 min after injection): 0.69 (0.14) % injected dose per gram
Biodistribution of radioactivity, Spleen ([2]; 60 min after injection): 0.42 (0.02) % injected dose per gram
Biodistribution of radioactivity, Stomach ([2]; 2 min after injection): 1.30 (0.43) % injected dose per organ
Biodistribution of radioactivity, Stomach ([2]; 10 min after injection): 2.53 (0.97) % injected dose per organ
Biodistribution of radioactivity, Stomach ([2]; 30 min after injection): 2.82 (1.88) % injected dose per organ
Biodistribution of radioactivity, Stomach ([2]; 60 min after injection): 2.26 (0.88) % injected dose per organ
